Measured values as given in ChEMBL document CHEMBL5625223 (Eur J Med Chem, 2023).
Blank lines part the entries; values can stand above or below the molecule they belong to. Calls of active or inactive are those of the source. No cut-off for these calls is given here.

Experiments:
[1] = target: T1, Adenosine receptor A3 (Homo sapiens) (UniProt P0DMS8); experiment: Displacement of […] from human A3AR expressed in HEK cells at 10 uM relative to control; type: cell-based
T1 sequence (whole entry): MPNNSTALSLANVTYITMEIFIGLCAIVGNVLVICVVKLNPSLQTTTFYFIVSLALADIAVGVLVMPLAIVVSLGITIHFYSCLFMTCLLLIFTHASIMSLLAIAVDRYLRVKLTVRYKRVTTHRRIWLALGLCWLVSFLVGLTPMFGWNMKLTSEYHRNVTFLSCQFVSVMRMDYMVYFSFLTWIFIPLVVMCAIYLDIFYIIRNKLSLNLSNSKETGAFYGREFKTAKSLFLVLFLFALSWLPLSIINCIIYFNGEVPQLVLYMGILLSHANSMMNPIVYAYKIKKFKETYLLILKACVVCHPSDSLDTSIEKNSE

[2] = target: T2, 5-hydroxytryptamine receptor 2C (Homo sapiens, UniProt P28335); experiment: Displacement of [3H]-Mesulergine from human 5-HT2C expressed in Flp-In-T-REx-293 cells assessed as inhibition constant incubated for 1 hr; type: cell-based; conditions: read-out: Ki
T2 sequence (P28335 whole entry): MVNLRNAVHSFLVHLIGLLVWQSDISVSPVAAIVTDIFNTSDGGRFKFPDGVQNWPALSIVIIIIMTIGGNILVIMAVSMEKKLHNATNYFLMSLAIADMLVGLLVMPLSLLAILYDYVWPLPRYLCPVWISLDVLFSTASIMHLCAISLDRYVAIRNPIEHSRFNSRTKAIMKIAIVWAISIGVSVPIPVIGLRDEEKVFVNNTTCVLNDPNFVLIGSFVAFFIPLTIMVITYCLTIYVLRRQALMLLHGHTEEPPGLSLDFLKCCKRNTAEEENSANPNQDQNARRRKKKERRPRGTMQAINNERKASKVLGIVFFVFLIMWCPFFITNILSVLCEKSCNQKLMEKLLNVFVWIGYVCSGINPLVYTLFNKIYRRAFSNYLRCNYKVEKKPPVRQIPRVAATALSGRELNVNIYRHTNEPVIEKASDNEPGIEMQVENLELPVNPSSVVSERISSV

Adenosine receptor A1 = target: T3, Adenosine receptor A1 (Homo sapiens, UniProt P30542); experiment: Displacement of […] from human A1AR expressed in Flp-In-T-REx-293 cells assessed as inhibition constant; type: cell-based
T3 sequence (P30542 whole entry): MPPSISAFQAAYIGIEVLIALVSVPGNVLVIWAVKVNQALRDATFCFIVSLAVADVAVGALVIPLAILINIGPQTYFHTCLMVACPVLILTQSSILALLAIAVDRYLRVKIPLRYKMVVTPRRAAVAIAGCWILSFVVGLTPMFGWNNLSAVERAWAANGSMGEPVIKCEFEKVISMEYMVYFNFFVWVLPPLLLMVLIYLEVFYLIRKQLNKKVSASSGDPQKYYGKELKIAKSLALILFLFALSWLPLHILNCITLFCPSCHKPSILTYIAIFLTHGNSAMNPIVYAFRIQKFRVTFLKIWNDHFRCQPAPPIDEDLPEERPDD

Histamine H1 receptor = Histamine H1 receptor (Homo sapiens, UniProt P35367); experiment: Binding affinity to histamine H1 receptor (unknown origin) assessed as inhibition constant
Sequence of Histamine H1 receptor (P35367 whole entry): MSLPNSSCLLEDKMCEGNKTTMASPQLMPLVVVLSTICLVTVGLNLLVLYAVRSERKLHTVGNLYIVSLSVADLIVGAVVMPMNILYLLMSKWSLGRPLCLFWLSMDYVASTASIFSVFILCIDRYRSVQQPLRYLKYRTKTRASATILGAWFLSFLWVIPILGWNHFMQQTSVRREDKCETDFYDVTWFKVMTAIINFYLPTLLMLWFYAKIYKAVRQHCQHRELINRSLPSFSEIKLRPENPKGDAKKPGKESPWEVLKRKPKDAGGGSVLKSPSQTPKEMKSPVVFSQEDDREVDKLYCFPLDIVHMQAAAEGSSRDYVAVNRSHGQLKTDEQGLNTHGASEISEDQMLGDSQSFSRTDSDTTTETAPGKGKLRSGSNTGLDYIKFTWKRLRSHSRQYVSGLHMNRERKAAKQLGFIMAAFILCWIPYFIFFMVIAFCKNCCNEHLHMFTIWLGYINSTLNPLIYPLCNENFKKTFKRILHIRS

[3] = target: T4, 5-hydroxytryptamine receptor 2A (Homo sapiens, UniProt P28223); experiment: Displacement of [3H]ketanserin from human 5-HT2A receptor expressed in HEK293 cells at 10 uM incubated for 1 hr relative to control; type: cell-based
T4 sequence (P28223 whole entry): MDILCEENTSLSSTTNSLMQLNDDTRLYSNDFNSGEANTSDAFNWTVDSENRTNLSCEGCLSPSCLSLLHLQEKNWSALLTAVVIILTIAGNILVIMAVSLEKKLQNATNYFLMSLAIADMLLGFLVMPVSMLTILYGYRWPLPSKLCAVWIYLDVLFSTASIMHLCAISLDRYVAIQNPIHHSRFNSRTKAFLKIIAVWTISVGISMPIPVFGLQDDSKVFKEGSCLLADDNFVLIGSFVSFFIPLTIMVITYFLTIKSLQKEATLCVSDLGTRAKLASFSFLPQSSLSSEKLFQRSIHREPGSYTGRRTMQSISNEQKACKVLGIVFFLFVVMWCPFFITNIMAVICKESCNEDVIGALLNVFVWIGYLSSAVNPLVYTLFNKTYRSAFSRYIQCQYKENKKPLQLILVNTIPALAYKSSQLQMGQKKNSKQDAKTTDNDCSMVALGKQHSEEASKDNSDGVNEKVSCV

[4] = target: T5, 5-hydroxytryptamine receptor 2C (Homo sapiens) (UniProt P28335); conditions: Flp-In-T-REx-293, filed as antagonist, time 1.0 hrs
T5 sequence (whole entry): T2 sequence (P28335 whole entry)

[5] = target: T4, 5-hydroxytryptamine receptor 2A; conditions: Flp-In-T-REx-293, time 1.0 hrs
[6] = target: T2, 5-hydroxytryptamine receptor 2C; experiment: Binding affinity to 5HT2C receptor (unknown origin) assessed as inhibition constant
[7] = target: T4, 5-hydroxytryptamine receptor 2A; experiment: Binding affinity to 5HT2A receptor (unknown origin) at 10 uM relative to control
[8] = target: T6, Adenosine receptor A1 (Homo sapiens) (UniProt P30542); experiment: Binding affinity to A1AR (unknown origin) at 10 uM relative to control; conditions: filed as agonist
T6 sequence (whole entry): T3 sequence (P30542 whole entry)

[9] = target: T7, 5-hydroxytryptamine receptor 2B (Homo sapiens, UniProt P41595); experiment: Binding affinity to 5HT2B receptor (unknown origin) assessed as inhibition constant
T7 sequence (P41595 whole entry): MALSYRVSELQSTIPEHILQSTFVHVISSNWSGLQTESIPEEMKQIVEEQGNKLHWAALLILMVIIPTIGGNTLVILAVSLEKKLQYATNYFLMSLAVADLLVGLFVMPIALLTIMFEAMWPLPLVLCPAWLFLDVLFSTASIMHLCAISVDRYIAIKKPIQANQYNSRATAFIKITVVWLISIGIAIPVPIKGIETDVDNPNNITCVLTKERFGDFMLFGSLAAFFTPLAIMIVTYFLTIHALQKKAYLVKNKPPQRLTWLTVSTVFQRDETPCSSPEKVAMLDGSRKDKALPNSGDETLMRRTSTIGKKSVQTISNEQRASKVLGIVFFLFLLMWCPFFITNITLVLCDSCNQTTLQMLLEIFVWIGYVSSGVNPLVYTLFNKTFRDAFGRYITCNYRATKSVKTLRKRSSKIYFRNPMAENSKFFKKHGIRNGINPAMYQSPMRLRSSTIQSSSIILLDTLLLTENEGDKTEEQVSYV

[10] = target: T7, 5-hydroxytryptamine receptor 2B; experiment: Binding affinity to 5HT2B receptor (unknown origin) at 10 uM relative to control; conditions: filed as antagonist
[11] = target: Adenosine receptor A2a (Homo sapiens) (UniProt P29274); experiment: Displacement of […] from human A2AR expressed in HEK cells at 10 uM relative to control; type: cell-based
Sequence of Adenosine receptor A2a (Homo sapiens) (P29274 whole entry): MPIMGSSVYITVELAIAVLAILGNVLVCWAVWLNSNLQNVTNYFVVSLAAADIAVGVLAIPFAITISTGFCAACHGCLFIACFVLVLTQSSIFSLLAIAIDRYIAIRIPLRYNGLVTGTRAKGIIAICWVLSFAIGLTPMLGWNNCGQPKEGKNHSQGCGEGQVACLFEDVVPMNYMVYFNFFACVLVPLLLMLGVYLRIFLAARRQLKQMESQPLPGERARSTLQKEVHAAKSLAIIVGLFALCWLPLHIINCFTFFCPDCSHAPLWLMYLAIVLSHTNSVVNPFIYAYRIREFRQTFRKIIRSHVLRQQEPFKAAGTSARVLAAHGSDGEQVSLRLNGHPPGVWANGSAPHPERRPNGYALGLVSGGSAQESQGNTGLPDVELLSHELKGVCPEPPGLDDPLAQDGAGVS

[12] = target: T7, 5-hydroxytryptamine receptor 2B; experiment: Agonist activity at human 5HT2B receptor expressed in human Flp-In-293 cells assessed as Gq-mediated calcium flux measured for 60 mins by BRET assay; type: functional, cell-based
[13] = target: T7, 5-hydroxytryptamine receptor 2B; experiment: Agonist activity at human 5HT2B receptor expressed in human Flp-In-293 cells assessed as beta-arrestin1 recruitment measured for 60 mins by BRET assay; type: functional, cell-based
[14] = target: T7, 5-hydroxytryptamine receptor 2B; experiment: Displacement of [3H]-LSD from human 5-HT2B receptor expressed in HEK cells assessed as inhibition constant incubated for 1 hr; type: cell-based
[15] = target: T7, 5-hydroxytryptamine receptor 2B; conditions: Flp-In-T-REx-293, filed as antagonist, time 1.0 hrs
Homo sapiens = species: Homo sapiens; experiment: Selectivity ratio of Kb for antagonist activity at human 5HT2B receptor to Kb for antagonist activity at human 5HT2C receptor
[16] = target: T7, 5-hydroxytryptamine receptor 2B; experiment: Agonist activity at human 5HT2B receptor expressed in human Flp-In-293 cells assessed as beta-arrestin2 recruitment measured for 60 mins by BRET assay; type: functional, cell-based
Mu-type opioid receptor = Mu-type opioid receptor (Homo sapiens, UniProt P35372); experiment: Binding affinity to MOR (unknown origin) assessed as inhibition constant
Sequence of Mu-type opioid receptor (P35372 whole entry): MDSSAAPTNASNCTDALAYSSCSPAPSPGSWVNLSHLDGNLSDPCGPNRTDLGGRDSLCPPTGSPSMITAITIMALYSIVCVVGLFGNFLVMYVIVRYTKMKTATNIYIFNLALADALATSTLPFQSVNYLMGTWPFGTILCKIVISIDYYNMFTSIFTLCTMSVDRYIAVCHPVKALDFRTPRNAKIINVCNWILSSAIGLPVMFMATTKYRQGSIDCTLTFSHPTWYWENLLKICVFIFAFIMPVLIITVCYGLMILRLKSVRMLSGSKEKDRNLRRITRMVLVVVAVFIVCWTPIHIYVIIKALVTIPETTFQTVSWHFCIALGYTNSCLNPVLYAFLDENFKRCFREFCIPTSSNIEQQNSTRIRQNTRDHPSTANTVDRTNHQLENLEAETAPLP

[17] = target: T5, 5-hydroxytryptamine receptor 2C (Homo sapiens); experiment: Displacement of [3H]-Mesulergine from human 5-HT2C expressed in Flp-In-T-REx-293 cells at 10 uM incubated for 1 hr relative to control; type: cell-based
[18] = target: T6, Adenosine receptor A1 (Homo sapiens); experiment: Displacement of […] from human A1AR expressed in Flp-In-T-REx-293 cells at 1 uM relative to control; type: cell-based; conditions: filed as agonist
[19] = target: T7, 5-hydroxytryptamine receptor 2B; experiment: Displacement of [3H]-LSD from human 5-HT2B receptor expressed in HEK cells at 10 uM incubated for 1 hr relative to control; type: cell-based
[20] = target: Sodium-dependent dopamine transporter (Homo sapiens, UniProt Q01959); experiment: Binding affinity to DAT (unknown origin) assessed as inhibition constant
Sequence of Sodium-dependent dopamine transporter (Q01959 whole entry): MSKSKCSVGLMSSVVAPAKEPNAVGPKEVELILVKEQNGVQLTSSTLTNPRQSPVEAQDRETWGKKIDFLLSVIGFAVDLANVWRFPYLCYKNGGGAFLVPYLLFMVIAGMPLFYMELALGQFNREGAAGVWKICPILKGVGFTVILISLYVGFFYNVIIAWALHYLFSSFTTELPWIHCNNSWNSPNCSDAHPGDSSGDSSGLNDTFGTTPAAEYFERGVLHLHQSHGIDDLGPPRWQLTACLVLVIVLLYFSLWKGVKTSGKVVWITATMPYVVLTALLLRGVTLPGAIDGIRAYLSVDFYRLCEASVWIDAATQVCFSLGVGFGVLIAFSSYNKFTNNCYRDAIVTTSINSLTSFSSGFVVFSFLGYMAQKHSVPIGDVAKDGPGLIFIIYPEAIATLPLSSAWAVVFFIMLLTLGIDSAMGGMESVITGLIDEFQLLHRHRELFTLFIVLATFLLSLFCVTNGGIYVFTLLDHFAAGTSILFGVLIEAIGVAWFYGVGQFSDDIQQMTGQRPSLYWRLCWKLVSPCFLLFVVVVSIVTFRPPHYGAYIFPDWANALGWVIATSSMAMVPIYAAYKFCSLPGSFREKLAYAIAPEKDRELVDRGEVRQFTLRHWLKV

Adenosine receptor A3 = target: T8, Adenosine receptor A3 (Homo sapiens, UniProt P0DMS8); experiment: Displacement of […] from human A3AR expressed in HEK cells assessed as inhibition constant; type: cell-based
T8 sequence (P0DMS8 whole entry): T1 sequence (whole entry)

Compound: OC[C@@]12C[C@@H]1[C@@H](n1cnc3c(N[C@@H](C4CCC4)C4CC4)nc(I)nc31)[C@H](O)[C@@H]2O
Activity ([1]; filed as agonist): 42%
Ki [2]: 552 nM
Ki (Adenosine receptor A1): 63.9 nM
Ki (Histamine H1 receptor): 2100 nM
Activity [3]: 26%
pKb [4]: 6.83
pKb [5]: < 5

Ki [6]: 1250 nM
Activity [7]: 21%
Activity [8]: 45%
Ki [9]: 601 nM
Compound: O[C@H]1[C@H](n2cnc3c(NC(C4CCC4)C4CCC4)nc(Cl)nc32)[C@H]2C[C@@]2(CSc2ccccc2F)[C@H]1O

Activity [10]: 47%
Activity [7]: 31%
Compound: OC[C@H]1O[C@@H](n2cnc3c(NC(C4CCC4)C4CCC4)nc(Cl)nc32)[C@H](O)[C@@H]1O

Compound: CCOC(=O)[C@@]12C[C@@H]1[C@@H](n1cnc3c(N[C@H](C4CCC4)C4CC4)nc(I)nc31)[C@H](O)[C@@H]2O
Activity ([1]; filed as agonist): 83%
Ki [2]: 331 nM
Activity [11]: 15%
Ki (Adenosine receptor A1): 2180 nM
Activity [12]: inactive
Activity [13]: inactive
Ki [14]: 33 nM
Activity [3]: 13%
pKb [15]: 8.76
pKb [4]: 7.11
Ratio (Homo sapiens): 44.7
pKb [5]: < 5
Activity [16]: inactive

Compound: O[C@H]1[C@H](n2cnc3c(NC(C4CCCC4)C4CCCC4)nc(Cl)nc32)[C@H]2C[C@@]2(CSc2ccccc2F)[C@H]1O
Activity [1]: 1%
Activity [11]: -10%
Ki (Mu-type opioid receptor): 4900 nM
Ki [14]: 640 nM
Activity [3]: 36%
Activity [17]: 37%

Activity [18]: 49%
Activity [19]: 29%
Compound: Clc1nc(NCC2CC2)c2nc[nH]c2n1

Compound: O[C@H]1[C@H](n2cnc3c(NC(C4CCCC4)C4CCCC4)nc(Cl)nc32)[C@H]2C[C@@]2(CF)[C@H]1O
Ki [2]: 580 nM
Activity [11]: 21%
Ki [20]: 7900 nM
Ki (Adenosine receptor A1): 1620 nM
Ki (Adenosine receptor A3): 7200 nM
Activity [3]: 36%
